Source: article PMC8421423, “Cellular model system to dissect the isoform-selectivity of Akt inhibitors” (Nature Communications, 2021)
Several values for one entry are separate records, joined by “and”; a condition that tells them apart may be missing. Equal entries are not always repeated. Where two headings read alike, the source gives them in different places.

Key:
[1] = target: T1, Akt2 (Homo sapiens, UniProt P31751); test: STK HTRF KinEASE activity-based assay (IC50)
[2] = test system: Ba/F3^myr-Akt2 cells; test: CellTiter-Glo cell viability assay
[3] = target: T2, Akt3 (Homo sapiens, UniProt Q9Y243); test: STK HTRF KinEASE activity-based assay (IC50)
T2 sequence (Q9Y243 whole entry): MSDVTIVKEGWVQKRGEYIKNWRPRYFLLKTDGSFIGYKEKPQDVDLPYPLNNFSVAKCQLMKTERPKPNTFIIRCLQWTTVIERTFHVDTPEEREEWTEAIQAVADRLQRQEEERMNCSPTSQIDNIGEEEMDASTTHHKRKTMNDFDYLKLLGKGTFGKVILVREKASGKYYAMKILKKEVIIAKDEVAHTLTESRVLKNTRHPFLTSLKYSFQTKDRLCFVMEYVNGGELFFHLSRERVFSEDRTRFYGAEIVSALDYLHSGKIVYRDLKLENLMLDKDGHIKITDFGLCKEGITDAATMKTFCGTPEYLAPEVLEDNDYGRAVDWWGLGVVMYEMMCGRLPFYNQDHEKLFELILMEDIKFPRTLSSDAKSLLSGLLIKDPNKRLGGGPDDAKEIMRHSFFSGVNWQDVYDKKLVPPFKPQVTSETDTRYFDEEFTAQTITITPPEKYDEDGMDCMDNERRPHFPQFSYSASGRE

[4] = test system: parental Ba/F3 cells; test: CellTiter-Glo cell viability assay; type: cell-based, murine
[5] = target: T1, Akt2; test: PhosphoSens continuous fluorometric kinetic enzyme assay
Method: (§1) By addition of either 8 nM Akt1, 2 nM Akt2, or 5 nM Akt3 (final concentrations) the reactions were initiated. […] Afterwards the kobs-values were plotted versus the inhibitor concentrations [I] and then fit to the following hyperbolic Eq.

[6] = target: T2, Akt3; test: as above
Method: as §1

[7] = test system: Ba/F3^myr-Akt3 cells; test: CellTiter-Glo cell viability assay; settings: for Log ratio EC50 [Akt] / EC50 [Akt], Akt3 / Akt2: cell viability assay Ba/F3 myr-Akt cells, log units
[8] = target: T3, Akt1 (Homo sapiens, UniProt P31749); test: STK HTRF KinEASE activity-based assay (IC50); settings: for Log ratio IC50 [Akt] / IC50 [Akt], Akt1 / Akt2: biochemical activity based assay, log units
T3 sequence (P31749 whole entry): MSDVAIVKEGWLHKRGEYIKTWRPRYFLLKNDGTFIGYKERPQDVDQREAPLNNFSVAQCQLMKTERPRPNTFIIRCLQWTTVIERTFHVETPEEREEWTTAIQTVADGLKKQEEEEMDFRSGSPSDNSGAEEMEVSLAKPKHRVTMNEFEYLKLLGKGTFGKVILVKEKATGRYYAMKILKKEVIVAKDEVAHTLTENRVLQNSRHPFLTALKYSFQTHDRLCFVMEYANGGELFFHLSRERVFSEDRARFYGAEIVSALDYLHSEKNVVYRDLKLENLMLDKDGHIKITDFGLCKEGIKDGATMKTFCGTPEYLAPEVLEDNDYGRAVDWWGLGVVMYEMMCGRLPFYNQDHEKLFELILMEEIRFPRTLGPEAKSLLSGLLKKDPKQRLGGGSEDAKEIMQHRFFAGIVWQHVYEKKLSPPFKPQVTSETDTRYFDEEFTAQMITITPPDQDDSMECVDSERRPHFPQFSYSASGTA
Method: The biochemical half maximal inhibitory concentrations (IC50) were determined with the STK HTRF KinEASE assay (Cisbio) according to the manufactor’s instructions. Briefly: 5 µL Kinase solution and 2.5 µL inhibitor solution (8% DMSO in HTRF buffer) were incubated for 1 h before the reaction was started by addition of 2.5 µL starting solution containing ATP and substrate peptide. […] After reaction completion (Akt1: 60 min, Akt2: 20 min, Akt3: 15 min), 10 µL of stop solution were added. […] The quotient of both intensities were recorded at eight different inhibitor concentrations and data fit to a Hill 4-parameter equation with Quattro software suite (Quattro Research GmbH, Martinsried, Germany). Each reaction was performed in duplicates and at least three independent determinations of each IC50 were made.

[9] = test system: Ba/F3^myr-Akt1 cells; test: CellTiter-Glo cell viability assay; settings: for Log ratio EC50 [Akt] / EC50 [Akt], Akt1 / Akt2: cell viability assay Ba/F3 myr-Akt cells, log units
[10] = target: T3, Akt1; test: PhosphoSens continuous fluorometric kinetic enzyme assay
Method: as §1

[11] = HTRF IC50 Akt2, Mean, mean of replicates
[12] = HTRF IC50 Akt2, individual determinations, single replicates
[13] = IC50 Akt2, HTRF, ATP at KM, 1 h preincubation
[14] = Mus musculus, read-out: CTG BaF3myr-Akt2, Mean, mean of replicates
[15] = read-out: CTG BaF3myr-Akt2, individual determinations, single replicates
[16] = HTRF IC50 Akt3, individual determinations, single replicates
[17] = IC50 Akt3, HTRF, ATP at KM, 1 h preincubation
[18] = Mus musculus, BaF3, parental cells, mean of replicates, read-out: CTG BaF3, Mean
[19] = Mus musculus, BaF3, parental cells, single replicates, read-out: CTG BaF3, individual determinations
[20] = parental cells, single replicates, read-out: CTG BaF3, individual determinations
[21] = Ki Akt2, Mean, mean of replicates
[22] = Ki Akt2, individual determinations, single replicates
[23] = read-out: kinact Akt2, individual determinations, single replicates
[24] = Mus musculus, read-out: CTG BaF3myr-Akt3, Mean, mean of replicates
[25] = Mus musculus, read-out: CTG BaF3myr-Akt3, individual determinations, single replicates
[26] = read-out: CTG BaF3myr-Akt3, individual determinations, single replicates
[27] = HTRF IC50 Akt1, Mean, mean of replicates
[28] = HTRF IC50 Akt1, individual determinations, single replicates
[29] = IC50 Akt1, HTRF, ATP at KM, 1 h preincubation
[30] = Mus musculus, read-out: CTG BaF3myr-Akt1, individual determinations, single replicates
[31] = read-out: CTG BaF3myr-Akt1, individual determinations, single replicates

T1 sequence (P31751 whole entry): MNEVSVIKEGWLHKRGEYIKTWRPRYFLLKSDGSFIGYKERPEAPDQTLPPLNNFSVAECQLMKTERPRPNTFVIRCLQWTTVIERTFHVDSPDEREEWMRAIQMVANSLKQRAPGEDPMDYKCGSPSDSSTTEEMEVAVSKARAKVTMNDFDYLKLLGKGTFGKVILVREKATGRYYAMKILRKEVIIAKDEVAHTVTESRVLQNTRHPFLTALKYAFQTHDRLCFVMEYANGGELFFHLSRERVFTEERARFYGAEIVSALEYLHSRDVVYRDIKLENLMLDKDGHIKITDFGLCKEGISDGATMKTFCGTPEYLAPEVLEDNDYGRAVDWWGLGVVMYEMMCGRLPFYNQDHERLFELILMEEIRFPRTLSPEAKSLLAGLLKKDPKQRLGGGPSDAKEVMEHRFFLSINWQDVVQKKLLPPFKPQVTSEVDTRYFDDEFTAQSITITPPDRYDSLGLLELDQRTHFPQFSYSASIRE

C=CC(=O)Nc1ccc2[nH]c(=O)n(C3CCN(Cc4ccc(-c5ncc(Cc6cccnc6)cc5-c5ccccc5)cc4)CC3)c2c1 [compound 21]
IC50 [1, 11]: 98.5 nM
IC50 [1, 12]: 92.9 nM and 124 nM and 104 nM
IC50 [1, 13]: 99 ± 6 nM
EC50 [2, 14]: 2230 nM
EC50 ([2]; Mus musculus, read-out: CTG BaF3myr-Akt2, individual determinations, single replicates): 2020 nM
EC50 [2, 15]: 2490 nM and 2190 nM
IC50 [3, 16]: 233 nM and 416 nM and 225 nM and 214 nM
IC50 [3, 17]: 272 ± 84 nM
EC50 [4, 18]: 14700 nM
EC50 [4, 19]: 18200 nM
EC50 [4, 20]: 11700 nM and 14300 nM
Ki ([5]; Ki Akt2): 21 ± 5 nM
Ki [5, 21]: 21.3 nM
Ki [5, 22]: 27.2 nM and 15.6 nM
kinact/KI ([5]; read-out: kinact /Ki Akt2): 12000 ± 5000 M⁻¹ s⁻¹
kinact ([5]; read-out: kinact Akt2): 0.000233 s⁻¹
kinact [5, 23]: 0.000267 s⁻¹
kinact Akt2, individual determinations ([5]; single replicates): 0.017 min⁻¹ and 0.009 min⁻¹
Ki ([6]; Ki Akt3): 64 ± 4 nM
Ki ([6]; Ki Akt3, Mean, mean of replicates): 63.8 nM
Ki ([6]; Ki Akt3, individual determinations, single replicates): 62.6 nM and 69.3 nM and 59.4 nM
kinact/KI ([6]; read-out: kinact /Ki Akt3): 8000 ± 1000 M⁻¹ s⁻¹
kinact/KI ([6]; read-out: kinact /Ki Akt3, individual determinations, single replicates): 7000 M⁻¹ s⁻¹
kinact ([6]; read-out: kinact Akt3): 0.000517 s⁻¹
kinact ([6]; read-out: kinact Akt3, Mean, mean of replicates): 0.000517 s⁻¹
kinact ([6]; read-out: kinact Akt3, individual determinations, single replicates): 0.000433 s⁻¹
kinact /Ki Akt3, individual determinations ([6]; single replicates): 0.009
kinact Akt3, individual determinations ([6]; single replicates): 0.037 min⁻¹ and 0.031 min⁻¹
EC50 [7, 24]: 6520 nM
EC50 [7, 25]: 5550 nM
Log ratio EC50 [Akt] / EC50 [Akt], Akt3 / Akt2 [7]: -0.46
EC50 [7, 26]: 6270 nM and 7120 nM
IC50 [8, 27]: 1800 nM
IC50 [8, 28]: 1820 nM and 2040 nM and 2470 nM and 858 nM
IC50 [8, 29]: 2110 ± 268 nM
Log ratio IC50 [Akt] / IC50 [Akt], Akt1 / Akt2 [8]: 1.30
EC50 ([9]; Mus musculus, read-out: CTG BaF3myr-Akt1, Mean, mean of replicates): 19700 nM
EC50 [9, 30]: 21200 nM
Log ratio EC50 [Akt] / EC50 [Akt], Akt1 / Akt2 [9]: 0.95
EC50 [9, 31]: 13300 nM and 24600 nM

C=CC(=O)Nc1ccc2[nH]c(=O)n(C3CCN(Cc4ccc(-c5ncc(C(=O)Nc6cccnc6)cc5-c5ccccc5)cc4)CC3)c2c1 [compound 22]
IC50 [1, 11]: 54.7 nM
IC50 [1, 12]: 57.5 nM and 58.8 nM and 47.9 nM
IC50 [1, 13]: 55 ± 5 nM
EC50 [2, 14]: 3680 nM
EC50 [2, 15]: 3180 nM and 5400 nM and 2460 nM
IC50 ([3]; HTRF IC50 Akt3, Mean, mean of replicates): 3050 nM
IC50 [3, 16]: 2240 nM and 3090 nM and 3820 nM
IC50 [3, 17]: 3050 ± 646 nM
EC50 ([4]; Mus musculus, BaF3, CTG, parental BaF3 cell line, read-out: EC50 BaF3): > 30000 nM
EC50 [4, 18]: > 30000 nM
EC50 [4, 19]: > 30000 nM
EC50 [4, 20]: > 30000 nM
Ki ([5]; Ki Akt2): 11 ± 1 nM
Ki [5, 21]: 10.8 nM
Ki [5, 22]: 9.4 nM and 10.7 nM and 12.2 nM
kinact/KI ([5]; read-out: kinact /Ki Akt2): 23000 ± 7000 M⁻¹ s⁻¹
kinact/KI ([5]; read-out: kinact /Ki Akt2, Mean, mean of replicates): 23000 M⁻¹ s⁻¹
kinact/KI ([5]; read-out: kinact /Ki Akt2, individual determinations, single replicates): 30000 M⁻¹ s⁻¹
kinact ([5]; read-out: kinact Akt2): 0.000233 s⁻¹
kinact [5, 23]: 0.000283 s⁻¹
kinact Akt2, individual determinations ([5]; single replicates): 0.013 min⁻¹ and 0.012 min⁻¹
Ki ([10]; Ki Akt1): 9 ± 3 nM
Ki ([10]; Ki Akt1, Mean, mean of replicates): 8.74 nM
Ki ([10]; Ki Akt1, individual determinations, single replicates): 12 nM and 5.9 nM and 8.3 nM
kinact/KI ([10]; read-out: kinact /Ki Akt1): 26000 ± 1000 M⁻¹ s⁻¹
kinact/KI ([10]; read-out: kinact /Ki Akt1, Mean, mean of replicates): 26000 M⁻¹ s⁻¹
kinact/KI ([10]; read-out: kinact /Ki Akt1, individual determinations, single replicates): 26000 M⁻¹ s⁻¹
kinact ([10]; read-out: kinact Akt1): 0.000233 s⁻¹
kinact ([10]; read-out: kinact Akt1, individual determinations, single replicates): 0.000317 s⁻¹
kinact Akt1, individual determinations ([10]; single replicates): 0.010 min⁻¹ and 0.013 min⁻¹
EC50 [7, 24]: 18800 nM
EC50 [7, 25]: 18300 nM
Log ratio EC50 [Akt] / EC50 [Akt], Akt3 / Akt2 [7]: -0.71
EC50 [7, 26]: 20700 nM and 18200 nM
IC50 [8, 27]: 209 nM
IC50 [8, 28]: 248 nM and 169 nM and 245 nM
IC50 [8, 29]: 209 ± 40 nM
Log ratio IC50 [Akt] / IC50 [Akt], Akt1 / Akt2 [8]: 0.58
EC50 [9, 30]: > 30000 nM
Log ratio EC50 [Akt] / EC50 [Akt], Akt1 / Akt2 [9]: 0.79
EC50 [9, 31]: 15100 nM and 22500 nM
